Source: US20260265300A1, “TARGETING PRAC1 IN STEROID HORMONE DRIVEN CANCER” (Fred Hutchinson Cancer Center, priority 2023, published 2026)
“Also recorded” adds a separate entry of the source. Read-outs that look alike come from different tables or passages of the source.

Assays:
LNCaP-abl cells [1] = assay: Proliferation of LNCaP-abl cells with enzalutamide by live cell imaging; format: cell-based; conditions: 10 μM enzalutamide
Method: Resistance to ARSI therapy is a major driver of PC related mortality. In this example, PRAC1-negative LNCaP-abl cells were grown in fully supplemented growth media (RPMI plus 10% FBS) in the absence or presence of 10 μM enzalutamide. Cell proliferation was determined longitudinally by live cell imaging using a Cytation™ 5 imaging instrument. […] Restoring PRAC1 function can result in re-sensitization of ARSI therapy (FIG. 4).

DU145 = assay: Cell viability of androgen receptor negative DU145 cells (CellTiter-Blue, 72 hours); format: cell-based; conditions: DU145 (AR negative)
Method: (§1) Cell viability of androgen receptor negative and androgen receptor positive cells was tested in vitro. The androgen positive cell lines LNCaP and LNCaP-abl and the androgen receptor negative cell lines PC3 and DU145 were incubated with the PRAC-F6, carboxy terminal peptide including the TAT cell penetration peptide.

PC3 = assay: Cell viability of androgen receptor negative PC3 cells (CellTiter-Blue, 72 hours); format: cell-based; conditions: PC3 (AR negative)
Method: as §1

LNCaP-abl cells [2] = conditions: N-terminally FITC-labeled peptide, flow cytometry
Method: (§2) PRAC1-negative LNCaP-abl cells were grown and exposed to increasing concentrations of the cell-permeable peptides, and cell viability was measured after 72 hours using CellTiter-Blue® (Patel et al., Cancer Res. Commun. 2(5):277-285 2022. doi: 10.1158/2767-9764.crc-21-0156. Epub 2022 May 2). […] The PRAC-F6 peptide was further tested for cell permeability.

LNCaP = assay: Cell viability of androgen receptor positive LNCaP cells (CellTiter-Blue, 72 hours); format: cell-based; conditions: LNCaP (AR positive)
Method: as §1

[3] = test system: human prostate cancer LAPC4-CR cells; assay: In vivo prostate cancer xenograft model (LAPC4-CR in castrated NSG mice); conditions: castrated male NSG mice, intraperitoneally daily, versus scrambled control peptide
Method: The peptide was also tested in an in vivo in prostate cancer xenograft model. Male NOD SCID gamma (NSG) mice were chemically castrated by subcutaneous injection of degarelix. Mice were then engrafted with PRAC1-negative human prostate cancer LAPC4-CR cells. When tumors reached palpable size, PRAC1 peptide PRAC-F6 or a scrambled control peptide (sc) were delivered intraperitoneally daily. Tumor size was measured by caliper.

LNCaP-abl cells [4] = assay: Cell viability of LNCaP-abl cells exposed to PRAC1 peptides (CellTiter-Blue, 72 hours); format: cell-based; conditions: increasing concentrations of peptide
Method: as §2
as §1, with “peptide. Cell viability was measured after 72 hours using CellTiter-Blue®.” for “peptide.”
LNCaP-abl cells were incubated with increasing concentrations of PRAC1 peptides, and cell viability was determined after 72 hours using CellTiter-Blue®. […]

AR LBD = molecular target: T1, AR LBD (Homo sapiens, UniProt P10275); assay: Recombinant protein-based binding assay by surface plasmon resonance; conditions: highly stringent conditions (0.5M NaCl)
T1 sequence (P10275 669-900 limits assumed): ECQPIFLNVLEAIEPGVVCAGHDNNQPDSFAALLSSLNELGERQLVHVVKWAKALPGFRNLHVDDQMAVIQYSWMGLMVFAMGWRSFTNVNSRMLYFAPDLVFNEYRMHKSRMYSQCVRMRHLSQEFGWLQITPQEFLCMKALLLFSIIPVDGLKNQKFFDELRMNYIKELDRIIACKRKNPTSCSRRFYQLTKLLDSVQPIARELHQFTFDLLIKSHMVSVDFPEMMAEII

full-length AR = molecular target: T2, full-length AR (Homo sapiens, UniProt P10275); assay: Binding to purified full-length AR and effect on its DNA binding activity; format: biochemical
T2 construct: made in house
T2 sequence (P10275 1-920): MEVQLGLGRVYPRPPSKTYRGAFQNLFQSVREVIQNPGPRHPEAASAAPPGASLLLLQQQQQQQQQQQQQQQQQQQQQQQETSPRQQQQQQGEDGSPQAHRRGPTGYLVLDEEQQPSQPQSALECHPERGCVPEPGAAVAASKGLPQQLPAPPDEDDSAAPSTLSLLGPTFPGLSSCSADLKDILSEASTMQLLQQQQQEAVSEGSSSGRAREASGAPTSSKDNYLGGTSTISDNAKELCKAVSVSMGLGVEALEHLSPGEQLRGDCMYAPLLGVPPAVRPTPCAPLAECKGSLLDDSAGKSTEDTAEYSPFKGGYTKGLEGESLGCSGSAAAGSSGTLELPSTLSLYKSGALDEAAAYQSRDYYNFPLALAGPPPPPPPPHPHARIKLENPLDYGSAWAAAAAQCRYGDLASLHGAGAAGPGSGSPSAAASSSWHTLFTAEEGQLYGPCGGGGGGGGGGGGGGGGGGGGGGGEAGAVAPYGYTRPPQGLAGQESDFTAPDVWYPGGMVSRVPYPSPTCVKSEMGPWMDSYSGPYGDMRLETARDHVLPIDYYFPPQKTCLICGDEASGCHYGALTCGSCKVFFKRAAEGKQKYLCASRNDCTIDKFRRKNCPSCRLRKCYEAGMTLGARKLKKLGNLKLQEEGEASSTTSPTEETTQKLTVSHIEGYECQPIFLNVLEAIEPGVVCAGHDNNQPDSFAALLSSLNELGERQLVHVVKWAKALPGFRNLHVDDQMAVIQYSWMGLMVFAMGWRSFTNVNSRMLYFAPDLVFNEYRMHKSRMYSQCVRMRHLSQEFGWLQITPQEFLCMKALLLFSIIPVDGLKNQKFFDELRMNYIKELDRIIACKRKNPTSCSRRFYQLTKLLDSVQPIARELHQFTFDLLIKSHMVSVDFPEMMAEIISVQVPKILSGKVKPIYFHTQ

MCF7 = assay: Cell viability of MCF7 breast cancer cells (CellTiter-Blue); format: cell-based; conditions: MCF7 (estrogen and progesterone receptor positive), relative to scrambled control peptide
Description: Estrogen and progesterone receptor positive breast cancer cell line MCF7 with PRAC1 peptide […] FIG. 8A.

With `CNC(=O)c1ccc(N2C(=S)N(c3ccc(C#N)c(C(F)(F)F)c3)C(=O)C2(C)C)cc1F` [enzalutamide] as the compound, how does the “cell proliferation / sensitivity to enzalutamide” value (LNCaP-abl cells [1]; LNCaP-abl cells transduced with control vector (RFP), RPMI plus 10% FBS) read?
The value was “resistant to enzalutamide across a broad concentration range”.

And the “cell proliferation / sensitivity to enzalutamide” value (LNCaP-abl cells [1]; LNCaP-abl cells with re-expression of PRAC1 (lentiviral ORF1))?
Its value is “sensitization to enzalutamide and significant growth suppression; also recorded: restoration of sensitivity to this drug”.

What does the source list for “LFSLIRKHLLRKKRRQRRRG [PRAC1-F6, C-terminus of PRAC1 linked to the cell permeable TAT peptide]”?
cell viability (DU145): Only AR-expressing cell lines show profound dose-dependent decrease in cell viability; cell viability (DU145; listed as PRAC-F6): only AR-expressing cell lines show a profound loss of viability; cell viability (PC3): Only AR-expressing cell lines show profound dose-dependent decrease in cell viability; cell viability (PC3; listed as PRAC-F6): only AR-expressing cell lines show a profound loss of viability; peptide uptake (cellular internalization) (LNCaP-abl cells [2]; listed as PRAC-F6): rapid cellular internalization; peptide uptake (cellular internalization) (LNCaP-abl cells [2]; listed as SEQ ID NO:17): uptake; cell viability (LNCaP): profound dose-dependent decrease in cell viability; cell viability (LNCaP; listed as PRAC-F6): profound loss of viability; tumor growth (tumor size by caliper) [3]: suppression of LAPC4-CR tumor growth; tumor growth (tumor size by caliper) ([3]; listed as PRAC-F6): suppression of tumor growth; cell viability (LNCaP-abl cells [4]): biologically active in reducing cell viability; also recorded: profound dose-dependent decrease in cell viability; cell viability (LNCaP-abl cells [4]; listed as PRAC-F6): profound loss of viability

What does the source list for “MLACKVRQAGFWSPPLQREQRCCAPISQIKDRPILLPPRVLFSLIRKHLL (listed as Homo sapiens) [PRAC1, PRAC1 protein encoded by ORF1 of PRAC1 gene]”?
binding to AR LBD (AR LBD): specifically binds the AR LBD; binding to full-length AR and change of its DNA binding activity (full-length AR): specifically binds and alters full-length AR's DNA binding activity

Which results are given for PPRVLFSLIRKHLLRKKRRQRRRG [SEQ ID NO:18]?
cell viability (MCF7): dose-dependent decrease in cell viability; also recorded: dose-dependent decrease is cell viability; cell viability (LNCaP-abl cells [4]): profound anti-tumor cell activity

How did the cell viability (LNCaP-abl cells [4]) turn out when “PPRVLFSLARKHLLRKKRRQRRRG [SEQ ID NO:27, isoleucine-to-alanine substitution mutant]” was run?
Its cell viability is “no effect on cell viability”.

With “PPRVLFSLIAKHLLRKKRRQRRRG [SEQ ID NO:28, arginine-to-alanine mutant]” as the compound, how does the cell viability (LNCaP-abl cells [4]) read?
The cell viability was “attenuated activity on cell viability”.
